Entries after “also recorded” stand apart in the source; their conditions may differ. Read-outs that look alike come from different tables or passages of the source.
What was measured:
[1] = test system: vancomycin-resistant Enterococcus faecalis (VanA VRE, BM4166); assay: In vitro antimicrobial assay (MIC), VanA E. faecalis; assay type: cell-based; settings: for antibiotic susceptibility profile of the strain: VanA E. faecalis BM 4166
Excerpt: (§1) One day before a study was run, fresh cultures of vancomycin-sensitive Staphylococcus aureus (VSSA strain ATCC 25923), methicillin and oxacillin-resistant Staphylococcus aureus subsp. aureus (MRSA strain ATCC 43300), vancomycin-resistant Enterococcus faecalis (VanA VRE, BM4166), Enterococcus faecium (VanA VRE, ATCC BAA-2317), vancomycin-resistant Enterococcus faecalis (VanB VRE, strain ATCC 51299), Escherichia coli (ATCC 25922), Acinetobacter baumannii (ATCC BAA-1710), Pseudomonas aeruginosa (ATCC 15442), Klebsiella pneumoniae (ATCC 700603) were inoculated and grown in an orbital shaker at 37° C. in 100% Mueller-Hinton broth (VSSA, MRSA and VanB VRE), 100% brain-heart infusion broth (VanA VRE, A. baumannii and K. pneumoniae) or 100% Luria broth (E. coli and P. aeruginosa). After 24 hours, the bacterial stock solutions were serially diluted with the culture medium (10% Mueller-Hinton broth for VSSA, MRSA and VanB VRE or 10% brain-heart infusion broth for VanA VRE A. baumannii and K. pneumoniae or 10% Luria Broth for E. coli and P. aeruginosa) to achieve a turbidity equivalent to a 1:100 dilution of a 0.5 M McFarland solution. This diluted bacterial stock solution was then inoculated in a 96-well V-shaped glass coated microtiter plate, supplemented with serial diluted aliquots of the antibiotic solution in DMSO (4 μL), to achieve a total assay volume of 0.1 mL. The plate was then incubated at 37° C. for 18 hours, after which minimal inhibitory concentrations (MICs) were determined by monitoring the cell growth (observed as a pellet) in the wells.
(§2) The lowest concentration of antibiotic (in μg/mL) capable of eliminating cell growth in the wells is the reported MIC value. The reported MIC values for the vancomycin analogues were determined against vancomycin as a standard in the first well.*
(§3) [*Clinical and Laboratory Standards Institute. Methods for Dilution Antimicrobial Susceptibility Tests for Bacteria That Grow Aerobically; Approved Standard, 7th ed.; CLSI document M07-A8; Clinical and Laboratory Standards Institute: Wayne, Pa., 2009.]

[2] = test system: vancomycin-resistant Enterococcus faecalis (VanB VRE, strain ATCC 51299); settings: previously reported data; cited from earlier work
[3] = test system: methicillin and oxacillin-resistant Staphylococcus aureus subsp. aureus (MRSA strain ATCC 43300); settings: previously reported data; cited from earlier work
[4] = test system: red blood cells (pig whole blood); assay: Hemolysis assay; assay type: cell-based; settings: assay time extended to 24 hours
Procedure: The blood cells in pig whole blood (2 mL, Pel-Free Biologicals, non-sterile, sodium citrate) were harvested (3000 rpm, 4° C., 20 minutes), and the red blood precipitate was washed and resuspended in phosphate buffered saline (pH 7.4). This diluted red blood cell stock solution (384 μL) was incubated with the antibiotic solution in DMSO (16 μL) in a 1 mL microtube to achieve the final concentration of the test compounds. […]
The solution was diluted with phosphate buffer saline (pH 7.4, 200 μL) at 25° C. and centrifuged (3000 rpm, 4° C., 20 minutes). The supernatant (200 μL) was transferred to a microtiter plate. A positive control (0.2% vol % Triton® X-100, 100% total hemolysis) and the negative control (no antibiotic, 0% hemolysis) were prepared. A350 was measured using a microplate reader (Molecular Devices®, Max Gemini EX). The % hemolysis was determined by calculating the following equation shown below (eq. 1).
Although the differences in mammalian and bacterial cell wall composition are extensive, including the more highly anionic composition of the bacterial cell wall responsible for a preferential and differential cation binding, lysis of mammalian cell membranes (red blood cells) are potential off-target consequences of cationic compounds that impact bacterial cell membrane integrity. […]

[5] = D-Ala-D-Lac versus D-Ala-D-Ala; cited from earlier work
[6] = test system: vancomycin-resistant Enterococcus faecalis (VanA VRE, BM4166); settings: BM 4166; previously reported data; cited from earlier work
[7] = test system: VanA VRE (E. faecalis BM 4166 and E. faecium ATCC BAA-2317); assay: Cell wall biosynthesis inhibition assay (accumulation of UDPMurNAc-pp 19); assay type: cell-based, Enterococcus faecalis; Enterococcus faecium; settings: 35 μg/mL, tetracycline pretreated VanA VRE, 30 minutes, 37° C.
Excerpt: The inhibition of bacterial cell wall synthesis was established in an assay that quantitates the accumulation of the peptidoglycan precursor UDP-N-acetyl-muramyl-depsipentapeptide (Compound 19, UDPMurNAc-pp), resulting from inhibited cell wall incorporation following antibiotic treatment. […] This procedure was reduced in scale and modified to enlist reverse-phase HPLC separation, UV detection, and calibration curve determination of the amount of isolated 19, permitting use with limited sample sizes. A larger scale isolation and full characterization of 19 provided the material needed to establish a linear calibration curve.
The bacterial suspension was heated at 100° C. for 15 minutes to release cytosolic 19. The entire supernatant was analyzed by semi-preparative reverse-phase HPLC with a single injection and the amount of 19 was quantitated with use of the calibration curve.
Cultures of vancomycin-resistant Enterococcus faecalis (VanA VRE, BM4166) and Enterococcus faecium (VanA VRE, ATCC BAA-2317) were inoculated and grown in an orbital shaker at 37° C. in 100% brain-heart infusion broth for 12 hours. The above bacterial solution was subjected to a subculture to obtain fresh mid-log phase bacterial cells (total volume of bacterial suspension=5 mL, incubation time=6 hours, OD600=0.6). […] Vancomycin analogues were added and the mixture was incubated at 37° C. for a further 30 minutes.
After the bacteria were harvested (3000 rpm, 4° C., 20 minutes), this bacterial precipitate was washed and resuspended in 5 mM glucose and 5 mM HEPES buffer (500 μL, 1:1, pH=7.2). This bacterial suspension was heated at 100° C. for 15 minutes and centrifuged (13000 rpm, 25° C., 10 minutes). […] [*****Allen et al., Antimicrob. Agents Chemother. 1996, 40(10):2356-2362]; Liu et al., J. Am. Chem. Soc. 2001, 123:9916-9917.] The amount of UDP Mur N-Ac pentapeptide (19) was quantified by use of calibration curves for E. faecalis BM4166, and for E. faecium ATCC BAA-2317 based on the area under the curve (AUC).

[8] = test system: Enterococcus faecium (VanA VRE, ATCC BAA-2317); settings: previously reported data; cited from earlier work
[9] = test system: Enterococcus faecium (VanA VRE, ATCC BAA-2317); assay: In vitro antimicrobial assay (MIC), VanA E. faecium; assay type: cell-based
Excerpt: as §1, §2, §3

[10] = test system: vancomycin-sensitive Staphylococcus aureus (VSSA strain ATCC 25923); settings: previously reported data; cited from earlier work
[11] = test system: VanA VRE (E. faecalis BM 4166 and E. faecium ATCC BAA-2317); assay: Cell wall permeability assay (propidium iodide uptake); assay type: cell-based, Enterococcus faecalis; Enterococcus faecium; settings: 10 μM compound
Excerpt: The effect of the compounds on cell membrane permeability was examined by measuring cytoplasmic membrane uptake of the fluorescent probe propidium iodide in the same VanA vancomycin-resistant E. faecalis (BM 4166) and E. faecium (ATCC BAA-2317) strains. This fluorescent probe only enters cells with permeabilized cell membranes and is detected by the emission of fluorescence upon intracellular nucleic acid binding [Boulos et al., J Microbiol Methods 1999, 37(1):77-86].
Fresh, mid-log phase VanA VRE in pH 7.2 buffer at 25° C. were preincubated with propidium iodide (10 μM) for 5 minutes before the test compounds were added, monitoring the fluorescence emission at 617 nm (excitation at 535 nm) over time, both pre (5 minutes) and post (15 minutes) compound addition. Rapid and sustained increases in fluorescence intensity are observed immediately upon addition of test compounds that induce bacterial cell membrane permeability.
One day before a study was run, cultures of vancomycin-resistant Enterococcus faecalis (VanA VRE, BM4166) and Enterococcus faecium (VanA VRE, ATCC BAA-2317), were inoculated and grown in an orbital shaker at 37° C. in 100% brain-heart infusion broth for 12 hours. The above bacterial solution was subjected to a subculture to obtain fresh mid-log phase bacterial cells (total volume of bacterial suspension=7 mL, incubation time=6 hours, OD600=0.6). After the cultured bacteria were harvested (3000 rpm, 4° C., 20 minutes), the white bacterial precipitate was washed and resuspended in 5 mM glucose and 5 mM HEPES buffer (1:1, 500 μL, pH=7.2).
This bacterial suspension (130 μL) was charged into a 96-well black plate with a clear bottom (Corning 3650). The propidium iodide dye (10 μL, 150 μM DMSO solution) was added to the above suspension and the fluorescence was monitored at 25° C. for 5 minutes at 30 second intervals using a microplate reader (Molecular Devices®, Max Gemini EX) at an excitation wavelength of 535 nm and an emission wavelength of 617 nm. The test compound (150 μM, 10 μL) was added to the cell suspension and the fluorescence was monitored at 25° C. for an additional 15 minutes.

[12] = test system: VanA VRE (E. faecalis BM4166 and E. faecium ATCC BAA-2317); assay: Resistance development study (serial passaging at 0.5×MIC); assay type: cell-based, Enterococcus faecalis; Enterococcus faecium; settings: 0.5×MIC serial exposure, MICs monitored daily
Procedure: However, an additional and even more important feature of the expression of multiple independent mechanisms of action is a mechanism's impact on the rate at which bacterial resistance may emerge.
The MICs of the vancomycin analogues against vancomycin-resistant Enterococcus faecalis (VanA VRE, BM4166) and Enterococcus faecium (VanA VRE, ATCC BAA-2317) were determined. […] A new MIC assay was performed with the same protocol. This process was repeated for 50 passages, and the fold increase in MIC was determined at each passage. [****Pollard et al., J. Antimicrob. Chemother. 2012, 67:2665-2672.]

SMILES	Antimicrobial Activity, MIC, VanA E. faecalis ([1]; BM 4166)	antibiotic susceptibility profile of the strain [1]	Antimicrobial Activity, MIC, VanB E. faecalis [2]	Antimicrobial Activity, MIC, MRSA S. aureus [3]	red blood cell hemolytic activity, extended exposure [4]	reduction of binding affinity for the altered ligand [5]	Antimicrobial Activity, MIC, VanA E. faecalis [6]	inhibition of bacterial cell wall synthesis (accumulation of 19) [7]	Antimicrobial Activity, MIC, VanA E. faecium [8]	Antimicrobial Activity, MIC, VanA E. faecium ([9]; ATCC BAA-2317)	antibiotic susceptibility profile of the strain ([9]; VanA E. faecium ATCC BAA-2317)	Antimicrobial Activity, MIC, sensitive S. aureus [10]	MIC ([1]; Enterococcus faecalis, VRE, read-out: Antimicrobial Activity, MIC, VanA E. faecalis)	induced cell membrane permeability (propidium uptake) [11]	MIC ([9]; Enterococcus faecium, read-out: Antimicrobial Activity, MIC, VanA E. faecium)	emergence of resistance on serial passaging [12]
CN[C@H](CC(C)C)C(=O)N[C@H]1C(=O)N[C@@H](CC(N)=O)C(=O)N[C@H]2C(=O)N[C@H]3C(=O)N[C@H](C(=O)N[C@H](C(=O)O)c4cc(O)cc(O)c4-c4cc3ccc4O)[C@H](O)c3ccc(c(Cl)c3)Oc3cc2cc(c3O[C@@H]2O[C@H](CO)[C@@H](O)[C@H](O)[C@H]2O[C@H]2C[C@](C)(N)[C@H](O)[C@H](C)O2)Oc2ccc(cc2Cl)[C@H]1O [Compound 1, vancomycin]	250 µg/mL	resistant	8 µg/mL	0.5 µg/mL	no different from the control tigecycline	1000 fold	250 µg/mL	do not effectively inhibit bacterial cell wall synthesis	250 µg/mL	250 µg/mL	resistant	0.5 µg/mL				
CCCCCCCCCCCCCC[N+](C)(C)CCCNC(=O)[C@H]1NC(=O)[C@H]2NC(=O)[C@@H](NC(=O)[C@@H]3NC(=O)[C@H](CC(N)=O)NC(=O)[C@H](NC(=O)[C@@H](CC(C)C)NC)[C@H](O)c4ccc(c(Cl)c4)Oc4cc3cc(c4OC3OC(CO)C(O)[C@H](O)[C@@H]3O[C@H]3CC(C)(N)[C@H](O)[C@H](C)O3)Oc3ccc(cc3Cl)[C@H]2O)c2ccc(O)c(c2)-c2c(O)cc(O)cc21 (stereo partly drawn) [Compound 12]					performed worse than the control daptomycin								2 µg/mL	produced pronounced, rapid cell membrane permeability	2 µg/mL	
CCCCCCCCCC(=O)N[C@@H](Cc1c[nH]c2ccccc12)C(=O)N[C@H](CC(N)=O)C(=O)N[C@@H](CC(=O)O)C(=O)N[C@@H]1C(=O)NCC(=O)N[C@@H](CCCN)C(=O)N[C@@H](CC(=O)O)C(=O)N[C@H](C)C(=O)N[C@@H](CC(=O)O)C(=O)NCC(=O)N[C@H](CO)C(=O)N[C@@H]([C@H](C)CC(=O)O)C(=O)N[C@@H](CC(=O)c2ccccc2N)C(=O)O[C@@H]1C [daptomycin]		sensitive														arises much faster and is much more pronounced; also recorded: arise much faster and was more pronounced

— US10934326B2, “Peripheral modifications on pocket-redesigned vancomycin analogs synergistically improve antimicrobial potency and durability” (priority 2016, dated 2021)
